The values below come from patent US20100184810A1, “METHODS AND COMPOSITIONS RELATED TO RIBOSWITCHES THAT CONTROL ALTERNATIVE SPLICING” (Yale University, priority 2007, published 2010).

Structures are written as SMILES. Read-outs that look alike come from different tables or passages of the source.

For assay [1], the system named is FREQUENCY (FRQ) transcripts. The conditions noted are these: 30 μM thiamine in minimal medium. Here is the method:
(§1) Reverse transcriptase-polymerase chain reaction (RT-PCR) analyses. Total RNA was isolated from mycelia using TRIzol® LS reagent (Invitrogen) according to the manufacturer's directions. 5 μg of total RNA was treated with RNase free DNase I (Promega) for 30 min at 37° C. cDNA was generated by reverse transcription with a polyT primer for 1 hr at 42° C. using SuperScript™ II Reverse Transcriptase (Invitrogen) according to the manufacturer's directions. To exclude the possibility of amplification products originating from contamination with genomic DNA, control reactions using RNA preparations before RT were performed and, for NMT1, a reverse primer spanning an exon-exon border in the coding region was used.
Reverse transcriptase-polymerase chain reaction (RT-PCR) analyses. Total RNA was isolated from mycelia using TRIzol® LS reagent (Invitrogen) according to the manufacturer's directions. 5 μg of total RNA was treated with RNase free DNase I (Promega) for 30 min at 37° C. cDNA was generated by reverse transcription with a polyT primer for 1 hr at 42° C. using SuperScript™ II Reverse Transcriptase (Invitrogen) according to the manufacturer's directions. […]

In assay [2] the test system is TPP riboswitch in the N. crassa NCU01977.1 mRNA. The conditions noted are these: 30 μM thiamine, 24 h.
Description: LUC activity was normalized to the value measured at t=0 h.
Luciferase reporter gene assays. Mycelia from N. crassa transformed with LUC reporter constructs were isolated by filtration and approximately 100 mg of tissue was ground to a fine powder. After addition of 100 gl 1× Passive Lysis Buffer (Promega), the samples were vigorously mixed and incubated on ice for 30 min followed by centrifugation for 15 minutes at 13,000 g. Luciferase activity was determined for the resulting supernatant using the Luciferase Assay System (Promega) and a plate-reading luminometer (Wallac). Luciferase activity was normalized over total protein concentration of the extract as determined by Bradford Protein Assay (BioRad) and finally expressed relative to a reference construct.
(§4) Luciferase reporter gene assays. Mycelia from N. crassa transformed with LUC reporter constructs were isolated by filtration and approximately 100 mg of tissue was ground to a fine powder. […] Luciferase activity was determined for the resulting supernatant using the Luciferase Assay System (Promega) and a plate-reading luminometer (Wallac). Luciferase activity was normalized over total protein concentration of the extract as determined by Bradford Protein Assay (BioRad) and finally expressed relative to a reference construct.
The test system of assay [3] is thiA mRNA carrying a TPP aptamer. The conditions noted are these: thiamine supplementation of growth medium; cited from earlier work.
The subject of a further assay is THI4 precursor mRNA. The conditions noted are these: 30 μM thiamine in growth medium, 24 h. On the procedure: (§2) RNA Analyses. RT-PCR analyses were conducted using RNA from untransformed N. crassa inoculated into 100 ml of Vogel's minimal medium supplemented with 0.5 mg ml-1 L-histidine. Cultures were grown at 30° C. with shaking at 150 rpm for 24 h either in the absence or presence of supplemented 30 μM thiamine. The cDNA was used as a template for PCR amplification of the 5′ regions of the three genes using primers and methods as described in Supplementary Information. All splicing products were confirmed by cloning and sequencing.
as §1
as §1, with “used. […] For sequence identification all amplification products were cloned and confirmed by sequencing several independent clones.” for “used.”
(§3) A specific primer combination was used for every gene with one primer binding to the annotated 5′ end of the transcript and a second primer binding immediately downstream of the riboswitch-containing intron. For the NMT1 gene, the primers used for PCR were DNA37 and DNA38 (FIG. 14), corresponding to the annotated 5′ end of the NMT1 mRNA and a region approximately 50 nucleotides downstream of the TPP riboswitch-containing intron, respectively. For the THI4 (CyPBP37) gene, the primers used were DNA39 and DNA40, corresponding to the 5′ end of the mRNA and a region approximately 125 nucleotides downstream of the TPP riboswitch-containing intron, respectively.

The test system of a further assay is NMT1 precursor mRNA. Here is the method: as §2, §1
as §1, with “used. […] For sequence identification all amplification products were cloned and confirmed by sequencing several independent clones.” for “used.”
as §3

A further assay has as its target NMT1 riboswitch aptamer. Briefly: In-line probing of NMT1 RNA constructs (TPP binding). Set-up: species or system N. crassa. Here is the method: In-line probing of RNA constructs. 5′ 32P-labeled RNAs were incubated at 23° C. for 40 hours in 50 mM Tris-HCl (pH 8.3 at 25° C.), 20 mM MgCl2 and 100 mM KCl in the presence or absence of TPP as defined. Cleavage products were separated by denaturing 10% PAGE, visualized by PhosphorImager (GE Healthcare), and quantified using ImageQuant software. KD values were determined by plotting the normalized fraction of RNA cleaved versus the logarithm of ligand concentration used. […] The results for in-line probing of 197 NMT1 and 115 NMT1 are depicted in FIG. 8 and FIG. 9, the results for 261 NMT1 are depicted in FIG. 10 and the results for 273 NMT1 are depicted in FIG. 11. Alternative base pairing similar to that being examined in the 273 NMT1 construct is observed in other fungal TPP riboswitches located in NMT1 mRNAs (FIG. 12).

Where [4] appears, read: 30 μM thiamine added at t=0 to culture grown in thiamine-free medium.

Description for NMT1 TPP riboswitch: Reporter Gene Assays. Transformation of N. crassa was conducted using electroporation of freshly suspended macroconidia and insertion of the target gene was verified by PCR with insert specific primers from genomic DNA. Transcription of luciferase reporter constructs was constitutively driven by the N. crassa beta-tubulin (BTUB) promoter inserted upstream of the NMT1 5′ UTR. […] Samples were isolated and assayed for luciferase activity as described below.
as §4
Luciferase reporter gene assays. […] Luciferase activity was determined for the resulting supernatant using the Luciferase Assay System (Promega) and a plate-reading luminometer (Wallac). Luciferase activity was normalized over total protein concentration of the extract as determined by Bradford Protein Assay (BioRad) and finally expressed relative to a reference construct.

As for `Cc1ncc(C[n+]2csc(CCO)c2C)c(N)n1` [thiamine], the “effect on splicing of an RNA that does not carry the TPP riboswitch (FRQ)” value in assay [1] is given as “do not change in number relative to each other”. In addition, the “effect on splicing of an RNA that does not carry the TPP riboswitch (FRQ)” value in assay [1] (listed as Thiamine) is reported as “does not affect splicing”. In addition, the “LUC expression, NCU01977.1 reporter fusion construct” value in assay [2] is on record as “an increase in LUC expression”. Further, in the assay with NMT1 TPP riboswitch (30 μM thiamine in the medium), the “LUC expression, constructs I-2R and I-3R (TPP riboswitch absent)” value was “unchanged”. Further, in the assay on NMT1 TPP riboswitch (grown overnight in medium supplemented with 30 μM thiamine), the “LUC reporter expression, wild-type (WT) NMT1 construct” value is on record as “Substantial repression”. Moreover, the thiA gene expression entry in assay [3] is “reduced gene expression”. The “effect on splicing of THI4 precursor mRNA” value with THI4 precursor mRNA is recorded as “causes alternative splicing”. Moreover, in the assay on NMT1 precursor mRNA (setting [4]), the “NMT1 transcript types within four hours after thiamine supplementation” value was “I-3 is almost completely replaced by I-2 and I-1”; the “NMT1 transcript types within the first hour after thiamine supplementation” value was “the splicing product I-2 and the unspliced NMT1 precursor RNA I-1 appear”. In addition, in the assay with NMT1 precursor mRNA (30 μM thiamine in growth medium, 24 h), the “effect on splicing of NMT1 precursor mRNA” value is given as “causes alternative splicing”.
In the case of `Cc1ncc(C[n+]2csc(CCO[P@](=O)(O)OP(=O)(O)O)c2C)c(N)n1` [TPP, thiamine pyrophosphate], the Kd on NMT1 riboswitch aptamer (both constructs (197 NMT1 and 115 NMT1), in-line probing, 23° C., 40 hours, 20 mM MgCl2, read-out: apparent dissociation constant (KD)) is around 0.3 nM. In addition, the “structural modulation of nucleotides at the branch site” value with NMT1 riboswitch aptamer (in-line probing of 261 NMT1 RNA, 10 μM TPP) is on record as “more structured”. Besides, the “structural modulation at the second 5′ splice site” value in the assay on NMT1 riboswitch aptamer (in-line probing of 273 NMT1 RNA, 10 μM TPP) is reported as “more flexible structure”.
